Laboratory results as given in US7112584B2, “Nonsteroidal antiinflammatory agents” (Schering AG, priority 2002, dated 2006).

Key:
human GR = biological target: T1, human GR (Homo sapiens, UniProt P04150); assay: glucocorticoid receptor (GR) binding test, cytosol of Sf9 cells, [3H]-dexamethasone; conditions: human GR from Sf9 cytosol
T1 construct: made in house; host or cells: Sf9 cells infected with recombinant baculovirus (cytosol preparation)
T1 sequence (P04150 1-777): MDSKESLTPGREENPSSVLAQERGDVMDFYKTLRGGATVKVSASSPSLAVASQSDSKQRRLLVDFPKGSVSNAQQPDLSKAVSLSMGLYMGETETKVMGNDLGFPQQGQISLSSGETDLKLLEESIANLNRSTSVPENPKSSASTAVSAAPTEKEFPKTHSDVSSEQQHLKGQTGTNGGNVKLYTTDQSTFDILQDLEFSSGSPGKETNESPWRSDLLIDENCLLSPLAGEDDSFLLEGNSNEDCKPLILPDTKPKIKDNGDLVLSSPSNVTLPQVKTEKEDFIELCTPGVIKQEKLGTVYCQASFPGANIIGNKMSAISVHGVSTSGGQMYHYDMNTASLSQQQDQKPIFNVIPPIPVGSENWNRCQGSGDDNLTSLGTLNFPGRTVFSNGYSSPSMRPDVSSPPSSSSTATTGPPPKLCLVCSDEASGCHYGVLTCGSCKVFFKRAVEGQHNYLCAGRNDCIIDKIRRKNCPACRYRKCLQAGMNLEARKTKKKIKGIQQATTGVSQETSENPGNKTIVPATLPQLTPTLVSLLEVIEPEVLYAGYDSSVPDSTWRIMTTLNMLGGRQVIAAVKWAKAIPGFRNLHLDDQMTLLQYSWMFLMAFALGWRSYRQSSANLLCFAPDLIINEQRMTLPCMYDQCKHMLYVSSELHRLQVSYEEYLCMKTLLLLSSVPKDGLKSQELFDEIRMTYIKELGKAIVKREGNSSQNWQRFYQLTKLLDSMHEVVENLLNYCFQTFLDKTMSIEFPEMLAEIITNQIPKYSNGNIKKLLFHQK
Source text: The binding of substances to the glucocorticoid receptor (GR) is examined with the aid of a recombinantly produced receptor. Cytosol preparations of Sf9 cells, which had been infected with recombinant baculoviruses, which code for the GR, are used for the binding studies.

[1] = system: secretion of cytokine IL-8 in human monocyte cell line THP-1; assay: inhibition of LPS-triggered IL-8 secretion in THP-1 cells (ELISA); type: cell-based; parameters: Inhibition of IL-8 Secretion Efficacy: concentration or dose not given beside the values; conditions: THP-1, LPS-triggered; for IC50: Homo sapiens
Procedure: The concentration of the cytokines was determined in the supernatant with use of commercially available ELISA kits.
The potency of the inflammation inhibition is determined by the inhibition of the secretion of cytokine IL-8 in a cellular test. […] The concentration of the cytokine was determined in the supernatant by commercially available ELISA kits. In this connection, the compounds of formula I show a high to very high potency and action (>50%) in the inhibition (see Table 4). The potency of the racemates is considerably lower than that of the pure enantiomers.

GR (IL-6 promoter) = biological target: T2, GR (IL-6 promoter) (Homo sapiens, UniProt P04150); assay: reporter gene test in HeLa cells, transrepression, IL-6 promoter-luciferase; conditions: for Emax: HeLa, read-out: Transrepression (TR)(IL-6-Promoter) Efficacy
T2 sequence (P04150 1-777): T1 sequence (P04150 1-777)
Procedure: (§1) The MMTV promoter (transactivation) and the IL-6 promoter (transrepression) in each case were upstream to the gene that codes for the luciferase. By means of the photometric determination of the enzyme activity of the luciferase, it was possible to measure the activation of the transcription (MMTV-promoter-construct) or the inhibition of the transcription (IL-6-promoter-construct) by the GR.
(§2) This dissociation of the mechanisms of action was determined with the aid of the reporter gene test in stable transfixed human HeLa cells. To determine the transactivation induced by the GR, the MMTV promoter, which is set before a luciferase gene, is used. Via the photometric determination of the luciferase activity, it was possible to determine the transactivation activities of the GR after binding the test compounds. The inhibition of the transcription of the luciferase gene, induced by tetradecanoyl-phorbol acetate (TPA) under the control of the IL-6 promoter or the collagenase promoter (transpression) by the GR after binding the test substances, was also determined by the measurement of luciferase activity in HeLa cells.

[2] = biological target: T3, GR (collagenase promoter) (Homo sapiens, UniProt P04150); assay: reporter gene test in HeLa cells, transrepression, collagenase promoter-luciferase; type: cell-based; conditions: TPA-induced; for IC50: read-out: Transrepression (TR)(Collagenase Promoter) IC50
T3 construct: endogenous in cells; host or cells: HeLa cells stably transfected with promoter-luciferase reporters (MMTV, IL-6 or collagenase promoter)
T3 sequence (P04150 1-777): T1 sequence (P04150 1-777)

[3] = system: croton oil-induced inflammation; assay: croton oil-induced ear inflammation, edema formation in mice; type: in vivo; conditions: systemic, two hours before croton oil, ear weight
Procedure: The antiinflammatory actions of the compounds of general formula I were tested in the animal experiment by tests in the croton oil-induced inflammation in rats and mice (J. Exp. Med. (1995), 182, 99–108). In this connection, croton oil in ethanolic solution was administered topically to the animals' ears. The test substances were also administered topically or systemically simultaneously with or two hours before the croton oil. After 16–24 hours, the ear weight was measured as a yardstick of the inflammatory edema, the peroxidase activity was measured as a yardstick of the invasions of granuloctyes, and the elastase activity was measured as a yardstick of the invasion of neutrophilic granuloctyes.
The antiinflammatory action of the compounds of general formula I were tested in an animal experiment in croton oil-induced inflammation in mice and in rats (J. Exp. Med. (1995), 182, 99–108). In this connection, croton oil in ethanolic solution was administered topically to the animals' ears. The test substances were systemically administered for two hours before the croton oil. After 16–24 hours, the ear weight was measured as a yardstick for the inflammatory edema.

GR (MMTV promoter) = biological target: T4, GR (MMTV promoter) (Homo sapiens, UniProt P04150); assay: reporter gene test in HeLa cells, transactivation, MMTV promoter-luciferase; conditions: for Transactivating (TA)(MMTV-Promoter) Efficacy: HeLa cells, luciferase; for TA:TR EC50:IC50: MMTV promoter EC50 : IL-6 promoter IC50
T4 sequence (P04150 1-777): T1 sequence (P04150 1-777)
Procedure: as §1, §2

[4] = system: tyrosinamino transferase (TAT); assay: induction of tyrosinamino transferase (TAT) in liver homogenates; type: in vivo; conditions: mice, 8 hours after administration, vs untreated control
Source text: One of the most frequent undesirable effects of a glucocorticoid therapy is the so-called “steroid diabetes” [cf. Hatz, H. J., Glucocorticoide: Immunologische Grundlagen, Pharmakologie und Therapierichtlinien [Glucocorticoids: Immunological Bases, Pharmacology and Therapy Guidelines], Wissenschaftliche Verlagsgesellschaft mbH, Stuttgart, 1998]. The reason for this is the stimulation of the gluconeogenesis in the liver by induction of the enzymes that are responsible for this effect and by free amino acids, which develop from the degradation of proteins (catabolic action of glucocorticoids). A key enzyme of the catabolic metabolism in the liver is the tyrosinamino transferase (TAT). The activity of this enzyme can be determined photometrically from liver homogenates and represents a good yardstick of the undesirable metabolic actions of the glucocorticoids. To measure the TAT induction, the animals are sacrificed 8 hours after the test substances are administered, the livers are removed, and the TAT activity in the homogenate is measured.
As parameters for the side effects of the catabolic metabolism induced by steroids, the activity of the enzyme tyrosinamino transferase (TAT) was determined by photometry from liver homogenates. The activity represents a good yardstick for the undesirable catabolic actions of the glucocorticoids. To measure the TAT induction, the animals (mice and rats) are killed 8 hours after the test substance is administered, the liver is removed, and the TAT activity is measured in the homogenates.

Cc1noc(=O)c2ccc(NC(=O)C(O)(CC3(c4cccc5c4OCC5)CC3)C(F)(F)F)cc12 (single isomer, unassigned) [Example 13]
IC50 (human GR): < 0.3 nM
melting point: 249 to 255 °C
IC50 [1]: 37 nM
Inhibition of IL-8 Secretion Efficacy [1]: 68%

Cc1noc(=O)c2ccc(NC(=O)C(O)(CC3(c4cc(F)ccc4O)CCC3)C(F)(F)F)cc12 (racemic) [Example 28]
IC50 (human GR): 2 nM
melting point: 138 °C
IC50 [1]: 860 nM
Inhibition of IL-8 Secretion Efficacy [1]: 100%

Cc1noc(=O)c2ccc(NC(=O)C(O)(CC(C)(C)c3cc(F)cc4c3OCO4)C(F)(F)F)cc12 (racemic) [Example 18]
melting point: 215 to 217 °C
IC50 (GR (IL-6 promoter)): 5.7 nM
Emax (GR (IL-6 promoter)): 63%

Cc1noc(=O)c2ccc(NC(=O)C(O)(CC(C)(C)c3cccc4c3OCO4)C(F)(F)F)cc12 (single isomer, unassigned; (+)) [Example 2, (+)-6-[4-(Benzo[1,3]dioxol-4-yl)-2-hydroxy-4-methyl-2-trifluoromethyl-valeroyl-amino]-4-methyl-2,3-benzoxazin-1-one]
Transrepression (TR)(Collagenase Promoter) Efficacy [2]: 92%
IC50 [2]: 3.7 nM
IC50 (human GR): < 0.3 nM
Edema Inhibition with 3 mg/kg [3]: 55%
Edema Inhibition with 30 mg/kg [3]: 86%
IC50 (GR (IL-6 promoter)): 0.92 nM
Emax (GR (IL-6 promoter)): 66%
EC50 (GR (MMTV promoter)): 11 nM
Transactivating (TA)(MMTV-Promoter) Efficacy (GR (MMTV promoter)): 71%
TA:TR EC50:IC50 (GR (MMTV promoter)): 11.9
IC50 [1]: 29 nM
Inhibition of IL-8 Secretion Efficacy [1]: 57%
Induction Factor for TAT with 3 mg/kg [4]: 1.4
Induction Factor for TAT with 30 mg/kg [4]: 2.4

Cc1noc(=O)c2ccc(NC(=O)C(O)(CC3(c4cc(F)ccc4O)CCC3)C(F)(F)F)cc12 (single isomer, unassigned) [Example 29]
Transrepression (TR)(Collagenase Promoter) Efficacy [2]: 105%
IC50 [2]: 3.4 nM
IC50 (human GR): 0.35 nM
Edema Inhibition with 3 mg/kg [3]: 34%
Edema Inhibition with 30 mg/kg [3]: 66%
IC50 (GR (IL-6 promoter)): 1.5 nM
Emax (GR (IL-6 promoter)): 79%
EC50 (GR (MMTV promoter)): 13 nM
Transactivating (TA)(MMTV-Promoter) Efficacy (GR (MMTV promoter)): 59%
TA:TR EC50:IC50 (GR (MMTV promoter)): 8.7
IC50 [1]: 31 nM
Inhibition of IL-8 Secretion Efficacy [1]: 86%
Induction Factor for TAT with 3 mg/kg [4]: 1.0
Induction Factor for TAT with 30 mg/kg [4]: 2.0
